Test results taken from US11395847B2, “Acylated GLP-1/GLP-2 dual agonists” (Zealand Pharma A/S, priority 2016, dated 2022).
Like-named read-outs stand apart in the source and are kept apart here. Blank lines part the entries; values can stand above or below the molecule they belong to. *1 amine or outer side, *2 acyl side, *3 side chain or, on linkers, in order; H or OH if unused. Where a SMILES comes first, the peptide text is derived from it. Side-chain parts run from the residue outwards. [ ]: non-standard residue; d: D form. The star is where a group is joined. C20 diacid = O=C(O)CCCCCCCCCCCCCCCCCCC(=O)*; γGlu = O=C(O)[C@H](CCC(=O)[*:2])N[*:1]; AEEA = NCCOCCOCC(=O)O; Aib = CC(C)(N)C(=O)O

Assays:
[1] = Solubility assessment (turbidity absorbance at 325 nm); type: physicochemical
Experimental: A stock solution of the test peptide (2 mg/ml; determined from the weighed amount of peptide) in demineralized water adjusted to pH 2.5 with HCl was prepared, and aliquots were diluted 1:1 in 100 mM acetate buffer (pH 4.0 and pH 5.0), 100 mM histidine buffer (pH 6.0 and pH 7.0) and 100 mM phosphate buffer (pH 6.0, pH 7.0 and pH 7.5), respectively, and loaded in a standard flat-bottom, non-sterile 96-well UV Microplate. The absorbance of samples (single samples, n=1) at 280 and 325 nm was measured in an absorbance-based plate reader, which was preheated to ambient temperature (typically 25° C.).

[2] = Chemical stability (RP-HPLC normalized purity after incubation at 40° C.); type: physicochemical; conditions: pH 7, 40° C., 14-day incubation, 0.2 mg/ml, normalized purity (area-%)
Experimental: Samples of each test peptide were dissolved in MILLIQ™ water, and the pH of the solution was adjusted to pH 6, 7, 7.5 or 9 using either HCl or NaOH. The final peptide concentration was 0.2 mg/ml. Samples were placed in glass vials and incubated at 40° C. The samples were analyzed by RP-HPLC on a C18 column with gradient elution using an acetonitrile/TFA/water eluent system. The area-percentage (area-%) of the main peak after incubation time T=t (relative to time T=0) was determined by UV spectroscopy at 220 nm.
The purity was first determined as follows: Purity(area-%)=(area of main peak/total area of all peaks)×100.
The purity was then normalized between time points by setting purity at time 0 (T=0) to 100 for each pH value for a given peptide, as follows: Normalized area-% at time t(T=t)=[area-%(T=t)/area-%(T=0)]×100.
The chemical stability assessment results after 14-day incubation (in the form of normalized purity values) are summarized in Table 4.

solubility ([1]; 100 mM acetate buffer pH 4.0, ambient temperature, read-out: Solubility Acetate buffer pH 4): < 1000 µg/mL | solubility ([1]; 100 mM acetate buffer pH 5.0, ambient temperature, read-out: Solubility Acetate buffer pH 5): < 1000 µg/mL | solubility ([1]; 100 mM histidine buffer pH 6.0, ambient temperature, read-out: Solubility Histidine buffer pH 6): ≥ 1000 µg/mL | solubility ([1]; 100 mM histidine buffer pH 7.0, ambient temperature, read-out: Solubility Histidine buffer pH 7): ≥ 1000 µg/mL | solubility ([1]; 100 mM phosphate buffer pH 6.0, ambient temperature, read-out: Solubility Phosphate buffer pH 6): ≥ 1000 µg/mL | solubility ([1]; 100 mM phosphate buffer pH 7.0, ambient temperature, read-out: Solubility Phosphate buffer pH 7): ≥ 1000 µg/mL | solubility ([1]; 100 mM phosphate buffer pH 7.5, ambient temperature, read-out: Solubility Phosphate buffer pH 7.5): ≥ 1000 µg/mL | pH 7 normalized stability [2]: A (>90% normalised stability)
SMILES: CC[C@H](C)[C@H](NC(=O)[C@H](Cc1ccccc1)NC(=O)[C@H](CC(=O)O)NC(=O)[C@H](CCCNC(=N)N)NC(=O)[C@H](C)NC(=O)[C@H](C)NC(=O)[C@H](CCC(N)=O)NC(=O)[C@H](CCCCNC(=O)CC[C@H](NC(=O)CCCCCCCCCCCCCCCCC(=O)O)C(=O)O)NC(=O)[C@H](CC(=O)O)NC(=O)[C@H](CC(C)C)NC(=O)[C@@H](NC(=O)[C@@H](NC(=O)[C@H](C)NC(=O)[C@H](CC(C)C)NC(=O)[C@H](CCC(=O)O)NC(=O)[C@H](CO)NC(=O)[C@@H](NC(=O)[C@H](Cc1ccccc1)NC(=O)[C@H](CO)NC(=O)CNC(=O)[C@H](CCC(=O)O)NC(=O)C(C)(C)NC(=O)[C@@H](N)Cc1c[nH]cn1)[C@@H](C)O)[C@@H](C)O)[C@@H](C)CC)C(=O)N[C@@H](C)C(=O)N[C@@H](Cc1c[nH]c2ccccc12)C(=O)N[C@@H](CC(C)C)C(=O)N[C@H](C(=O)N[C@@H](CC(C)C)C(=O)N[C@@H](Cc1c[nH]cn1)C(=O)N[C@@H](CCCCN)C(=O)N[C@H](C(=O)N[C@H](C(=O)N[C@@H](CC(=O)O)C(=O)O)[C@@H](C)O)[C@@H](C)CC)[C@@H](C)CC [Compound 28] (HELM PEPTIDE1{H.[Aib].E.G.S.F.T.S.E.L.A.T.I.L.D.K.Q.A.A.R.D.F.I.A.W.L.I.L.H.K.I.T.D}|PEPTIDE2{[O=C(O)CCCCCCCCCCCCCCCCC(=O)[*:2]].[gGlu]}$PEPTIDE1,PEPTIDE2,16:R3-2:R2$$$V2.0)

pH 7 normalized stability [2]: A (>90% normalised stability)
SMILES: CC[C@H](C)[C@H](NC(=O)[C@H](Cc1ccccc1)NC(=O)[C@H](CC(=O)O)NC(=O)[C@H](CCCNC(=N)N)NC(=O)[C@H](C)NC(=O)[C@H](C)NC(=O)[C@H](CCC(N)=O)NC(=O)[C@H](CCC(=O)O)NC(=O)[C@H](CC(=O)O)NC(=O)[C@H](CC(C)C)NC(=O)[C@@H](NC(=O)[C@@H](NC(=O)[C@H](C)NC(=O)[C@H](CCCCNC(=O)COCCOCCNC(=O)COCCOCCNC(=O)[C@H](CCCCN)NC(=O)[C@H](CCC(=O)O)NC(=O)[C@H](CCCCN)NC(=O)CC[C@H](NC(=O)CCCCCCCCCCCCCCCCCCC(=O)O)C(=O)O)NC(=O)[C@H](CCC(=O)O)NC(=O)[C@H](CO)NC(=O)[C@@H](NC(=O)[C@H](Cc1ccccc1)NC(=O)[C@H](CO)NC(=O)CNC(=O)[C@H](CCC(=O)O)NC(=O)C(C)(C)NC(=O)[C@@H](N)Cc1c[nH]cn1)[C@@H](C)O)[C@@H](C)O)[C@@H](C)CC)C(=O)N[C@@H](C)C(=O)N[C@@H](Cc1c[nH]c2ccccc12)C(=O)N[C@@H](CC(C)C)C(=O)N[C@H](C(=O)N[C@@H](CCC(=O)O)C(=O)N[C@@H](Cc1c[nH]cn1)C(=O)N[C@@H](CCCCN)C(=O)N[C@H](C(=O)N[C@H](C(=O)N[C@@H](CC(=O)O)C(=O)O)[C@@H](C)O)[C@@H](C)CC)[C@@H](C)CC [Compound 55] (H-H[Aib]EGSFTSEK([AEEA-AEEA-Lys-Glu-Lys-γGlu-C20 diacid])ATILDEQAARDFIAWLIEHKITD-OH)

pH 7 normalized stability [2]: A (>90% normalised stability)
SMILES: CC[C@H](C)[C@H](NC(=O)[C@H](Cc1ccccc1)NC(=O)[C@H](CC(=O)O)NC(=O)[C@H](CCCNC(=N)N)NC(=O)[C@H](C)NC(=O)[C@H](C)NC(=O)[C@H](CCC(N)=O)NC(=O)[C@H](CCC(=O)O)NC(=O)[C@H](CC(=O)O)NC(=O)[C@H](CC(C)C)NC(=O)[C@@H](NC(=O)[C@@H](NC(=O)[C@H](C)NC(=O)[C@H](CCCCNC(=O)COCCOCCNC(=O)[C@H](CCCCN)NC(=O)[C@H](CCC(=O)O)NC(=O)[C@H](CCCCN)NC(=O)CC[C@H](NC(=O)CCCCCCCCCCCCCCCCCCC(=O)O)C(=O)O)NC(=O)[C@H](CCC(=O)O)NC(=O)[C@H](CO)NC(=O)[C@@H](NC(=O)[C@H](Cc1ccccc1)NC(=O)[C@H](CO)NC(=O)CNC(=O)[C@H](CCC(=O)O)NC(=O)C(C)(C)NC(=O)[C@@H](N)Cc1c[nH]cn1)[C@@H](C)O)[C@@H](C)O)[C@@H](C)CC)C(=O)N[C@@H](C)C(=O)N[C@@H](Cc1c[nH]c2ccccc12)C(=O)N[C@@H](CC(C)C)C(=O)N[C@H](C(=O)N[C@@H](CCC(=O)O)C(=O)N[C@@H](Cc1c[nH]cn1)C(=O)N[C@@H](CCCCN)C(=O)N[C@H](C(=O)N[C@H](C(=O)N[C@@H](CC(=O)O)C(=O)O)[C@@H](C)O)[C@@H](C)CC)[C@@H](C)CC [Compound 53] (HELM PEPTIDE1{H.[Aib].E.G.S.F.T.S.E.K.A.T.I.L.D.E.Q.A.A.R.D.F.I.A.W.L.I.E.H.K.I.T.D}|PEPTIDE2{[O=C(O)CCCCCCCCCCCCCCCCCCC(=O)[*:2]].[gGlu].K.E.K.[O=C(COCCOCCN[*:1])[*:2]]}$PEPTIDE1,PEPTIDE2,10:R3-6:R2$$$V2.0)

pH 7 normalized stability [2]: A (>90% normalised stability)
SMILES: CC[C@H](C)[C@H](NC(=O)[C@H](Cc1ccccc1)NC(=O)[C@H](CC(=O)O)NC(=O)[C@H](CCCNC(=N)N)NC(=O)[C@H](C)NC(=O)[C@H](C)NC(=O)[C@H](CCC(N)=O)NC(=O)[C@H](CCCCNC(=O)COCCOCCNC(=O)COCCOCCNC(=O)CC[C@H](NC(=O)CCCCCCCCCCCCCCCCCCC(=O)O)C(=O)O)NC(=O)[C@H](CC(=O)O)NC(=O)[C@H](CC(C)C)NC(=O)[C@@H](NC(=O)[C@@H](NC(=O)[C@H](C)NC(=O)[C@H](CC(C)C)NC(=O)[C@H](CCC(=O)O)NC(=O)[C@H](CO)NC(=O)[C@@H](NC(=O)[C@H](Cc1ccccc1)NC(=O)[C@H](CO)NC(=O)CNC(=O)[C@H](CCC(=O)O)NC(=O)C(C)(C)NC(=O)[C@@H](N)Cc1c[nH]cn1)[C@@H](C)O)[C@@H](C)O)[C@@H](C)CC)C(=O)N[C@@H](C)C(=O)N[C@@H](Cc1c[nH]c2ccccc12)C(=O)N[C@@H](CC(C)C)C(=O)N[C@@H](CCCCN)C(=O)N[C@@H](CCC(N)=O)C(=O)N[C@@H](Cc1c[nH]cn1)C(=O)N[C@@H](CCCCN)C(=O)N[C@H](C(=O)N[C@H](C(=O)N[C@@H](CC(=O)O)C(=O)O)[C@@H](C)O)[C@@H](C)CC [Compound 34] (H-H[Aib]EGSFTSELATILDK([AEEA-AEEA-γGlu-C20 diacid])QAARDFIAWLKQHKITD-OH)
